Results on two molecules are retold here after patent publication US11066421B1, “Synthetic cinchona alkaloids against cancer” (Ares Pharmaceuticals, LLC, priority 2021, dated 2021).

“Also recorded” adds a separate entry of the source.

For one test, the system named is PC-3. Kind of test: Confocal laser scanning microscopy apoptosis, PC-3. The note with it: 100 nM, 48 hours. Format: cell-based, human. The method, then:
Confocal Laser Scanning Microscopy. Cells were treated with cinchona alkaloids or PBS in culture medium for 48 hours. After 48 hr of culture, cells were co-stained with a rabbit polyclonal antitubulin antibody (Green Fluorescence) and the DNA-specific dye Toto-3 (Blue Fluorescence) and examined by laser scanning confocal microscopy using a Bio-Rad MRC-1024 Laser Scanning Confocal Microscope equipped with a Kr/Ar laser (Bio-Rad, Hercules, Calif., USA) mounted on a Nikon Eclipse E800 upright microscope with high numerical aperture objectives (Nikon, Melville, N.Y., USA), as described (F. M. Uckun, et al., 2010, Proc. Natl. Acad. Sci. USA, 107: 2902-7; F. M. Uckun., et al., 2010, British Journal of Haematology, 149: 508-17; F. M. Uckun, et al., 2013, Blood. 121:4348-54; F. M. Uckun et al., 2010, Proc. Natl Acad. Sci. USA 107:16852-57; F. M. Uckun et al., 2012, Proc. Natl Acad. Sci. USA 109:18072-77). Cell lines. BT-20 (ATCC HTB-19), a triple negative breast cancer cell line, PC-3 (ATCC CRL-1435) a CRPC cell line (small cell endocrine carcinoma) derived from a Stage IV prostate cancer patient with bone metastases were obtained from American Type Culture Collection (ATCC) (Manassas, Va.). […] Cells were washed in PBS and counterstained with the DNA-specific dye TOTO-3 (blue fluorescence) (Molecular Probes Inc., Eugene, Oreg.) for 10 min at a dilution of 1:1000. […]

In a further test the test system is U87 human GBM cells. The experiment in a line: CB.17 SCID mouse xenograft model of human glioblastoma multiforme. The conditions noted are these: 5 days per week for 4 weeks. In kind it is in vivo. As for the experimental part: Cell Lines. Human brain tumor cell line U87 (ATCC HTB-14) was obtained from American Type Culture Collection (Rockville, Md.) and maintained as a continuous cell line in DMEM supplemented with 10% fetal calf serum (FCS), 4 mm glutamine, 100 units/ml penicillin G, and […] streptomycin sulfate. All of the tissue culture reagents were obtained from Life Technologies, Inc. Inc. (Gaithersburg, Md.).
Mice. Female CB.17 SCID mice were obtained from Taconic (Germantown, N.Y.) and housed in a specific-pathogen-free room located in a secure indoor facility with controlled temperature, humidity, and noise levels. Mice were housed in micro-isolator cages and fed with autoclaved rodent chow. Water was also autoclaved and supplemented with trimethoprim/sulfomethoxazol 3 days a week. The animal protocol used in this study was approved by the local Institutional Animal Care and Use Committee (IACUC), and all of the animal care procedures conformed to the Guide for the Care and Use of Laboratory Animals (National Research Council, National Academy Press, Washington D.C. 1996).
SCID Mouse Xenograft Model of Human Glioblastoma Multiforme (GBM). The predictive value of the mouse xenograft models for clinical effectiveness of anti-cancer drugs has been confirmed for several drugs (Richmond A, Su. Y. Mouse xenograft models vs GEM models for human cancer therapeutics. Dis Model Mech. 2008; 1(2-3):78-82. doi:10.1242/dmm.000976). CB.17 SCID mice (8 wk. old, female) were inoculated subcutaneously with 1×10^6 U87 human GBM cells (1×10^6/inoculum, volume: 200 μL) in the right hind leg, as described (R. K. Narla et al., 2001, Clin Cancer Res. 7:2124-33). Mice were treated daily with intraperitoneal injections of vehicle (50 μL DMSO) or AP-1 (125 μg˜5 mg/kg/day in 50 μL DMSO) according to a 5 days on 2 days off schedule for 4 consecutive weeks. Tumor growth was determined by the measurement of visible tumors with a caliper in three dimensions three days a week and expressed as tumor volume in cubic millimeters (mm^3). Tumor volumes were calculated using the formula for the volume of a prolate spheroid, V=4/3×3.14×length/2×width/2×depth/2.

As to “2,4,6-Tri (9-O-dihydrocinchoninyl)pyrimidine [AP-5]”, in the test on PC-3, the “signs of apoptosis by confocal imaging” value is recorded as “virtually all of the BT-20 or PC-3 cells treated with AP-5 showed signs of advanced apoptosis; also recorded: virtually all of the PC-3 cells treated with AP-5 showed signs of advanced apoptosis”.

As to `C=CC1CN2CCC1CC2C(Oc1cc(OC(c2ccnc3ccccc23)C2CC3CCN2CC3C=C)nc(OC(c2ccnc3ccccc23)C2CC3CCN2CC3C=C)n1)c1ccnc2ccccc12` (centres unmarked) [AP-1, 2,4,6-Tri(9-O-cinchoninyl)pyrimidine], in the test with U87 human GBM cells (5 mg/kg/dose i.p. daily), the tumor progression result was “significantly slowed down the tumor progression”. Moreover, the average tumor size in the test on U87 human GBM cells (day 15, 5 mg/kg/day i.p.) stood at 4.1±1.1 mm^3; in the test on U87 human GBM cells (day 30, 5 mg/kg/day i.p.), 37.8±16.2 mm^3. This molecule gave a tumor size in the test on U87 human GBM cells (day 44, 5 mg/kg/day i.p.) of 956.0±291.3 mm^3.
